Laboratory results reported in patent US9133228B2, “Guanidinyl-substituted polyamides useful for treating human papilloma virus” (Nanovir, LLC, priority 2011, dated 2015).

Columns and labels:
HPV18 = assay: Inhibition of viral replication in cells that maintain HPV18 DNA, viral DNA quantified by real-time PCR; format: cell-based, Human papilloma virus; conditions: cells maintaining HPV18 cultured 72 hours with polyamide; vs DMSO control; highest dose tested 10 μM
From the text: (§1) Table 1a lists a number of exemplary polyamides synthesized in accordance with the present invention. The HPLC/MW values given in Table 1b were obtained using low resolution high pressure liquid chromatography/mass spectrometry (LR HPLC/MS), which provides moderate precision masses of single isotopomers rather than average molecular weights or exact masses. Table 2 presents a summary of measured IC50 values of certain of these polyamides against HPV16, HPV18 and HPV31. The IC50 is the concentration of compound required for 50% inhibition of viral replication in vitro. The polyamides were tested in cells that maintain HPV16, HPV18 or HPV31 DNA. Cells maintaining the selected HPV were cultured for 72 hours in the presence of the polyamide. Viral DNA was then quantified using real-time PCR and compared to vehicle (DMSO)-treated control cultures. […] Table 3 presents a summary of measured IC50 and IC90 values of certain of these polyamides against HPV16, HPV18 and HPV31.

HPV16 = assay: Inhibition of viral replication in cells that maintain HPV16 DNA, viral DNA quantified by real-time PCR; format: cell-based, Human papilloma virus; conditions: cells maintaining HPV16 cultured 72 hours with polyamide; vs DMSO control; highest dose tested 10 μM
From the text: as §1

HPV31 = assay: Inhibition of viral replication in cells that maintain HPV31 DNA, viral DNA quantified by real-time PCR; format: cell-based, Human papilloma virus; conditions: cells maintaining HPV31 cultured 72 hours with polyamide; vs DMSO control; highest dose tested 10 μM
From the text: as §1

[1] = tested on: sequence of HPV16 (365 bp: 7662-122); assay: DNase I footprinting experiment; format: binding, Human papilloma virus; conditions: polyamide 2 nM and 5 nM; DNA 200 pM; DMSO and CHAPS; 37° C. for 5-6 hrs
Procedure: FIG. 9 illustrates a footprinting experiment of NV1087 on a sequence of HPV16 (365 bp: 7662-122). All reactions were carried out in presence of DMSO and CHAPS, and the final DNA concentration was 200 pM. The polyamide concentration varied (2 nM and 5 nM). Reactions were incubated with polyamide at 37° C. for 5-6 hrs.

Structure (SMILES) | IC50 (HPV18) [nM] | IC50 (HPV16) [nM] | IC50 (HPV31) [nM] | protection of DNA from digestion by DNase I (decrease in peak heights) [1]
CN(C)CCCNC(=O)CCNC(=O)c1cc(NC(=O)c2cc(NC(=O)c3cc(NC(=O)c4cc(NC(=O)CCNC(=O)c5cc(NC(=O)c6cc(NC(=O)CCCNC(=O)c7cc(NC(=O)c8cc(NC(=O)c9cc(NC(=O)CCNC(=O)c%10cc(N=C(N(C)C)N(C)C)cn%10C)cn9C)cn8C)cn7C)cn6C)cn5C)cn4C)cn3C)cn2C)cn1C [NV1081, TMG-PyβPyPyPy-γ-PyPyβPyPyPyPyβ-Dp•2TFA] | > 10000 | > 10000 | > 10000 | –
CN(CCCN)CCCNC(=O)CCNC(=O)c1cc(NC(=O)CCNC(=O)c2cc(NC(=O)c3cc(NC(=O)c4cc(NC(=O)CCNC(=O)c5cc(NC(=O)c6cc(NC(=O)CCNC(=O)c7cc(NC(=O)CCCNC(=O)c8nc(NC(=O)c9cc(NC(=O)CCNC(=O)c%10cc(NC(=O)c%11cc(NC(=O)CCNC(=O)c%12cc(NC(=O)c%13cc(NC(=O)c%14cc(N=C(N(C)C)N(C)C)cn%14C)cn%13C)cn%12C)cn%11C)cn%10C)cn9C)cn8C)cn7C)cn6C)cn5C)cn4C)cn3C)cn2C)cn1C.O=C(O)C(F)(F)F.O=C(O)C(F)(F)F.O=C(O)C(F)(F)F.O=C(O)C(F)(F)F [NV1087, TMG-PyPyPyβPyPyβPyIm-γ-PyβPyPyβPyPyPyβPyβ-Ta•4TFA] | 24 | 31 | 16 | protects the DNA from digestion by DNase I
CN(C)CCCNC(=O)CCNC(=O)c1cc(NC(=O)c2cc(NC(=O)c3cc(NC(=O)c4cc(NC(=O)CCNC(=O)c5cc(NC(=O)c6cc(NC(=O)CCCNC(=O)c7cc(NC(=O)c8cc(NC(=O)c9cc(NC(=O)CCNC(=O)c%10cc(NC(=O)c%11cc(N=C(N(C)C)N(C)C)cn%11C)cn%10C)cn9C)cn8C)cn7C)cn6C)cn5C)cn4C)cn3C)cn2C)cn1C [NV1083, TMG-PyPyβPyPyPy-γ-PyPyβPyPyPyPyβ-Dp•2TFA] | 929 | 2410 | 3080 | –
CN(CCCN)CCCNC(=O)CCNC(=O)c1cc(NC(=O)c2cc(NC(=O)c3cc(NC(=O)c4cc(NC(=O)CCNC(=O)c5cc(NC(=O)c6cc(NC(=O)CCCNC(=O)c7cc(NC(=O)c8cc(NC(=O)c9cc(NC(=O)CCNC(=O)c%10cc(NC(=O)c%11cc(N=C(N(C)C)N(C)C)cn%11C)cn%10C)cn9C)cn8C)cn7C)cn6C)cn5C)cn4C)cn3C)cn2C)cn1C [NV1084, TMG-PyPyβPyPyPy-γ-PyPyβPyPyPyPyβ-Ta•3TFA] | 1040 | 1910 | 7320 | –
CN(CCCN)CCCNC(=O)CCNC(=O)c1cc(NC(=O)c2cc(NC(=O)c3cc(NC(=O)CCNC(=O)c4cc(NC(=O)c5cc(NC(=O)c6cc(NC(=O)CCNC(=O)c7cc(NC(=O)c8cc(NC(=O)CCCNC(=O)c9cc(NC(=O)c%10cc(NC(=O)CCNC(=O)c%11nc(NC(=O)c%12cc(NC(=O)c%13cc(NC(=O)CCNC(=O)c%14cc(NC(=O)c%15cc(N=C(N(C)C)N(C)C)cn%15C)cn%14C)cn%13C)cn%12C)cn%11C)cn%10C)cn9C)cn8C)cn7C)cn6C)cn5C)cn4C)cn3C)cn2C)cn1C [NV1085, TMG-PyPyβPyPyImβPyPy-γ-PyPyβPyPyPyβPyPyPyβ-Ta•4TFA] | 41 | 29 | 32 | –

Continued, in another order:

IC50 (HPV18) [nM] | IC50 (HPV16) [nM] | IC50 (HPV31) [nM] | Structure (SMILES) | protection of DNA from digestion by DNase I (decrease in peak heights) [1]
405 | 267 | 220 | CN(CCCN)CCCNC(=O)CCNC(=O)c1cc(NC(=O)CCNC(=O)c2cc(NC(=O)c3cc(NC(=O)c4cc(NC(=O)CCNC(=O)c5cc(NC(=O)c6cc(NC(=O)CCNC(=O)c7cc(NC(=O)[C@H](N)CCNC(=O)c8nc(NC(=O)c9cc(NC(=O)CCNC(=O)c%10cc(NC(=O)c%11cc(NC(=O)CCNC(=O)c%12cc(NC(=O)c%13cc(NC(=O)c%14cc(N=C(N(C)C)N(C)C)cn%14C)cn%13C)cn%12C)cn%11C)cn%10C)cn9C)cn8C)cn7C)cn6C)cn5C)cn4C)cn3C)cn2C)cn1C [NV1073, TMG-PyPyPyβPyPyβPyIm-γNH2-PyβPyPyβPyPyPyβPyβ-Ta•5TFA] | –
15 | 95 | 32 | CN(C)CCCNC(=O)CCNC(=O)c1cc(NC(=O)CCNC(=O)c2cc(NC(=O)c3cc(NC(=O)c4cc(NC(=O)CCNC(=O)c5cc(NC(=O)c6cc(NC(=O)c7cc(NC(=O)[C@H](N)CCNC(=O)c8cc(NC(=O)CCNC(=O)c9cc(NC(=O)c%10cc(NC(=O)CCNC(=O)c%11cc(NC(=O)c%12cc(NC(=O)c%13cc(N=C(N(C)C)N(C)C)cn%13C)cn%12C)cn%11C)cn%10C)cn9C)cn8C)cn7C)cn6C)cn5C)cn4C)cn3C)cn2C)cn1C [NV1077, TMG-PyPyPyβPyPyβPy-γNH2-PyPyPyβPyPyPyβPyβ-Dp] | –
17 | 42 | 37 | CN(C)CCCNC(=O)CCNC(=O)c1cc(NC(=O)CCNC(=O)c2cc(NC(=O)c3cc(NC(=O)c4cc(NC(=O)CCNC(=O)c5cc(NC(=O)c6cc(NC(=O)c7cc(NC(=O)[C@@H](CCNC(=O)c8cc(NC(=O)CCNC(=O)c9cc(NC(=O)c%10cc(NC(=O)CCNC(=O)c%11cc(NC(=O)c%12cc(NC(=O)c%13cc(N=C(N(C)C)N(C)C)cn%13C)cn%12C)cn%11C)cn%10C)cn9C)cn8C)NC(=O)NCCCN(C)C)cn7C)cn6C)cn5C)cn4C)cn3C)cn2C)cn1C [NV1079, TMG-PyPyPyβPyPyβPy-γNHR″-PyPyPyβPyPyPyβPyβ-Dp•3TFA] | –
68 | 68 | 46 | CN(C)CCCNC(=O)CCNC(=O)c1cc(NC(=O)CCNC(=O)c2cc(NC(=O)c3cc(NC(=O)c4cc(NC(=O)CCNC(=O)c5cc(NC(=O)c6cc(NC(=O)CCNC(=O)c7cc(NC(=O)CCCNC(=O)c8nc(NC(=O)c9cc(NC(=O)CCNC(=O)c%10cc(NC(=O)c%11cc(NC(=O)CCNC(=O)c%12cc(NC(=O)c%13cc(N=C(N(C)C)N(C)C)cn%13C)cn%12C)cn%11C)cn%10C)cn9C)cn8C)cn7C)cn6C)cn5C)cn4C)cn3C)cn2C)cn1C [NV1089, TMG-PyPyβPyPyβPyIm-γ-PyβPyPyβPyPyPyβPyβ-Dp•3TFA] | –
216 | 109 | 96 | CN(CCCN)CCCNC(=O)CCNC(=O)c1cc(NC(=O)CCNC(=O)c2cc(NC(=O)c3cc(NC(=O)c4cc(NC(=O)CCNC(=O)c5cc(NC(=O)c6cc(NC(=O)CCNC(=O)c7cc(NC(=O)[C@@H](CCNC(=O)c8nc(NC(=O)c9cc(NC(=O)CCNC(=O)c%10cc(NC(=O)c%11cc(NC(=O)CCNC(=O)c%12cc(NC(=O)c%13cc(NC(=O)c%14cc(N=C(N(C)C)N(C)C)cn%14C)cn%13C)cn%12C)cn%11C)cn%10C)cn9C)cn8C)NC(=O)NCCCN(C)CCCN)cn7C)cn6C)cn5C)cn4C)cn3C)cn2C)cn1C [NV1072, TMG-PyPyPyβPyPyβPyIm-γNHR′-PyβPyPyβPyPyPyβPyβ-Ta•6TFA] | –
